Laboratory results published in ChEMBL document CHEMBL1149412, “Novel human lipoxygenase inhibitors discovered using virtual screening with homology models” (J Med Chem, 2006).

Test: Partition coefficient of the compound, log P
Format: physicochemical
Settings: octanol/water

SMILES	logP
Nc1sc2c(c1C(=O)Nc1cccc(Cl)c1)CCCC2	4.64
Cc1cccc(C(=N)NOC(=O)c2ccc(C)cc2Cl)c1	5.42
CCc1cc(-c2n[nH]cc2Oc2ccccc2)c(O)cc1O	3.93
